Test results taken from patent US7799794B2, “Treatment for cardiovascular disease” (Merck Sharp & Dohme Corp., priority 2000, dated 2010).
Like-named read-outs stand apart in the source and are kept apart here.

Key:
[1] = cited from earlier work
[2] = cited from earlier work; remark: listed apart in the source
Sprague-Dawley rats [3] = experiment: Enalapril or L-Arginine in hyperuricemic rats on low salt diet: blood pressure (Example 4); format: in vivo, rat; conditions: for systolic blood pressure lower than the hyperuricemic controls: at 7 weeks, enalapril 1 mg/kg/d or L-Arginine 1% in drinking water, p<0.05; for effect on systolic blood pressure of hyperuricemic rats: treatment from the outset, 7 weeks
Method: Rats were placed on either low salt diet, low salt diet with 2% oxonic acid, low salt diet with oxonic acid and enalapril (1 mg/kg/d in drinking water), or low salt diet with oxonic acid and L-Arginine (1% in drinking water).
(§1) Am J Physiol 268:F1 164-76, 1995].

Sprague-Dawley rats [4] = experiment: Renal findings at 7 weeks: immunohistochemistry and BUN (Example 2); format: in vivo, rat; conditions: low NaCl diet
Method: (§2) Rats were placed on a low sodium diet (NaCl, 0.125%) with or without 2% oxonic acid for 7 weeks. A third group were administered allopurinol in the drinking water (150 mg/L) with weekly adjustments of the dose depending on the uric acid level.
(§3) Am J Clin Pathol 1957; 28:152.]. Serum blood urea nitrogen was measured by a standard kit (Sigma, St Louis, Mo.).
(§4) Renal biopsies were fixed in Methyl-Carnoy's, 10% formalin or 100% ethanol and embedded in paraffin. The presence of uric acid crystals was evaluated by staining 4-μm ethanol-fixed sections with de Galantha and modified Von Kossa stains. Kidney tissue from rats with acute uric acid nephropathy, induced with oxonic acid and uric acid administration was used as a positive control [Stavric, B., Johnson, W. J., and Grice, H. C., Uric acid nephropathy: An experimental model, Proc. Soc. Exp. Biol. Med. 130: 512-16 (1969).]. Light microscopy was performed in 4-μm sections of Methyl-Carnoy's fixed tissue stained with periodic acid Schiff (PAS) reagent or with hematoxylin and eosin.
(§5) Methyl-Carnoy's fixed tissue sections were analyzed by indirect immunoperoxidase [Lombardi, D., Gordon , K. L., Polinsky, P., Suga, S., Schwartz, S. M., and Johnson, R. J. Salt sensitive hypertension develops after transient exposure to angiotensin II. Hypertension 33:1013-1019, 1999] staining with the following primary antibodies: OP199, a goat polyclonal antibody against osteopontin (OPN)(gift of C. Giachelli, Univ of Wash., Seattle); ED-1, a monoclonal antibody to rat monocytes and macrophages (Serotec); goat antihuman type III collagen (Southern Biotechnology Associates Inc, Birminghan Ala.); and anti-renin, a mouse antibody to human renin (Sanofi Recherche, Montpellier, France). Sections were incubated with a secondary antibody followed by horseradish peroxidase-conjugated avidin D (Vector Laboratories, Burlingame, Calif.), diaminobenzidine (Sigma) with or without nickel chloride as a chromogen, and counsterstained with methyl green.
(§6) NOS1 was detected on formalin fixed tissue sections with a rabbit anti-rat neuronal nitric oxide synthase (Transduction Laboratories, Lexington, Ky.), followed by a biotinylated secondary antibody, diaminobenzidine with nickel chloride and counterstained with nuclear fast red.
(§7) All quantification was performed blinded. The tubular expression of osteopontin (OPN), which is a sensitive marker of tubulointerstitial injury, was calculated as the percent of renal cortex occupied by OPN-positive tubules [Lombardi, D., Gordon, K. L., Polinsky, P., Suga, S., Schwartz, S. M., and Johnson, R. J. Salt sensitive hypertension develops after transient exposure to angiotensin II. Hypertension 33:1013-1019, 1999]. Utilizing computer-assisted image analysis software (Optimas V6.2, Media Cybernetics, Silver Springs, Md.) and digitized images, the percent of area occupied by OPN positive tubules per 4 mm^2 field at a magnification of 50× was measured and the mean percent area calculated for each biopsy. The interstitial deposition of collagen type III was calculated as the % of renal cortex occupied by collagen III, noted by immunostaining, by computer image analysis. The mean number of interstitial macrophages (ED-1+cells) in each biopsy was calculated in a blinded manner by counting the total number of positive interstitial cortical cells in 20 sequentially selected 0.25 mm^2 grids at 200× magnification. Renin expression was quantified by the number of glomeruli with positive staining for juxtaglomerular renin using a minimum of 100 glomeruli in each biopsy as previously described [Eng, E., et al., Renal proliferation and phenotypic changes in rats with two-kidney, one-clip Goldblatt hypertension. Am J Hypertens 7:177-185 (1994)]; this has been shown previously to correlate with intrarenal renin content[Eng, E., et al., Renal proliferation and phenotypic changes in rats with two-kidney, one-clip Goldblatt hypertension. Am J Hypertens 7:177-185 (1994)]. […]

Sprague-Dawley rats [5] = experiment: Oxonic acid on low sodium diet with or without allopurinol: blood pressure, uric acid (Example 2); format: in vivo, rat; conditions: allopurinol from the initiation of the oxonic acid diet, low salt
Method: All studies utilized adult male Sprague-Dawley rats (Simonsen Laboratories, Gilroy Calif.)(200-250 g).
as §2
Am J Physiol 268:F1164-76, 1995].
as §3

Sprague-Dawley rats [6] = experiment: Allopurinol intervention or oxonic acid withdrawal in hyperuricemic rats: blood pressure (Example 3); format: in vivo, rat; conditions: allopurinol added at 7 weeks, OA/LSD continued
Text: (§8) Rats were placed on the low sodium diet with oxonic acid for 7 weeks, and then were matched based on uric acid level and blood pressure in various groups to either receive allopurinol, have the oxonic acid withdrawn from the diet, or continue the oxonic acid/low salt diet. A control group of six rats were placed on the lowsodium diet alone for 11 weeks. All of these rats were sacrificed at week 11.
as §1, §3

Sprague-Dawley rats [7] = experiment: Renal findings at 11 weeks: immunohistochemistry and BUN (Example 3); format: in vivo, rat; conditions: low NaCl diet, allopurinol added at 7 weeks
Method: as §8, §3, §4, §5, §6
as §7, with “hypertension.” for “hypertension. Am J Hypertens 7:177-185 (1994)]; this has been shown previously to correlate with intrarenal renin content[Eng, E., et al., Renal proliferation and phenotypic changes in rats with two-kidney, one-clip Goldblatt hypertension. Am J Hypertens 7:177-185 (1994)].”

For CCCCc1nc(Cl)c(CO)n1Cc1ccc(-c2ccccc2-c2nn[nH]n2)cc1 [Compound No. 9, losartan potassium], which “uric acid excretion in urine (Concentration of Uric Acid)” value (from here on “uric acid excretion in urine”) ([1]; 25 mg/man oral, in hunger, 4-8 hr) is on record?
The value was 32.4 ± 14.7 mg/h.

What about the “uric acid excretion in urine” value ([1]; 25 mg/man oral, in hunger, 8-12 hr) of the same compound?
Its value is 28.7 ± 13.6 mg/h.

And the “uric acid excretion in urine” value ([1]; 25 mg/man oral, in hunger, 12-24 hr)?
Its value is 19.7 ± 9.9 mg/h.

What about the “uric acid excretion in urine” value ([1]; 25 mg/man oral, in hunger, 24-40 hr) of the same compound?
The value was 33.2 ± 21.9 mg/h.

And the “uric acid excretion in urine” value ([1]; 50 mg/man oral, in hunger, 0-4 hr)?
The value was 52.8 ± 4.3 mg/h.

And the “uric acid excretion in urine” value ([1]; 50 mg/man oral, in hunger, 8-12 hr)?
Its value is 39.1 ± 4.4 mg/h.

And the “uric acid excretion in urine” value ([1]; 50 mg/man oral, in hunger, 12-24 hr)?
Its value is 22.2 ± 3.8 mg/h.

What about the “uric acid excretion in urine” value ([1]; 50 mg/man oral, in hunger, 24-40 hr) of the same compound?
The value was 26.6 ± 5.4 mg/h.

What about the “uric acid excretion in urine” value ([1]; 100 mg/man oral, after meal, 0-4 hr) of the same compound?
The value was 75.9 ± 19.0 mg/h.

And the “uric acid excretion in urine” value ([1]; 100 mg/man oral, after meal, 4-8 hr)?
Its value is 59.0 ± 3.8 mg/h.

And the “uric acid excretion in urine” value ([1]; 100 mg/man oral, after meal, 8-12 hr)?
Its value is 31.8 ± 4.5 mg/h.

What about the “uric acid excretion in urine” value ([1]; 100 mg/man oral, after meal, 12-24 hr) of the same compound?
Its value is 19.7 ± 2.5 mg/h.

And the “uric acid excretion in urine” value ([1]; 100 mg/man oral, after meal, 24-40 hr)?
The value was 29.5 ± 4.1 mg/h.

And the “uric acid excretion in urine” value ([1]; 100 mg/man oral, in hunger, 0-4 hr)?
The value was 81.2 ± 15.7 mg/h.

What about the “uric acid excretion in urine” value ([1]; 100 mg/man oral, in hunger, 4-8 hr) of the same compound?
The value was 36.4 ± 7.7 mg/h.

What about the “uric acid excretion in urine” value ([1]; 100 mg/man oral, in hunger, 8-12 hr) of the same compound?
Its value is 30.1 ± 6.8 mg/h.

What about the “uric acid excretion in urine” value ([1]; 100 mg/man oral, in hunger, 12-24 hr) of the same compound?
Its value is 19.2 ± 4.2 mg/h.

What about the “uric acid excretion in urine” value ([1]; 100 mg/man oral, in hunger, 24-40 hr) of the same compound?
Its value is 28.0 ± 7.2 mg/h.

And the “uric acid excretion in urine” value ([1]; 200 mg/man oral, in hunger, 0-4 hr)?
Its value is 78.7 ± 15.3 mg/h.

What about the “uric acid excretion in urine” value ([1]; 200 mg/man oral, in hunger, 4-8 hr) of the same compound?
The value was 25.4 ± 6.6 mg/h.

And the “uric acid excretion in urine” value ([1]; 200 mg/man oral, in hunger, 8-12 hr)?
The value was 19.6 ± 5.2 mg/h.

And the “uric acid excretion in urine” value ([1]; 200 mg/man oral, in hunger, 12-24 hr)?
The value was 13.4 ± 2.3 mg/h.

What about the “uric acid excretion in urine” value ([1]; 200 mg/man oral, in hunger, 24-40 hr) of the same compound?
The value was 21.0 ± 3.0 mg/h.

And the “Concentration of Uric Acid in serum” value ([2]; 25 mg/man oral, in hunger, 0 hr (when administered))?
Its value is 5.2 ± 0.5 mg/dL.

And the “Concentration of Uric Acid in serum” value ([2]; 25 mg/man oral, in hunger, 4 hr)?
Its value is 4.8 ± 0.6 mg/dL.

And the “Concentration of Uric Acid in serum” value ([2]; 25 mg/man oral, in hunger, 24 hr)?
Its value is 4.6 ± 0.6 mg/dL.

What about the “Concentration of Uric Acid in serum” value ([2]; 50 mg/man oral, in hunger, 0 hr (when administered)) of the same compound?
The value was 6.1 ± 1.4 mg/dL.

And the “Concentration of Uric Acid in serum” value ([2]; 50 mg/man oral, in hunger, 4 hr)?
The value was 5.3 ± 1.3 mg/dL.

What about the “Concentration of Uric Acid in serum” value ([2]; 50 mg/man oral, in hunger, 24 hr) of the same compound?
Its value is 5.6 ± 1.4 mg/dL.

What about the “Concentration of Uric Acid in serum” value ([2]; 100 mg/man oral, after meal, 4 hr) of the same compound?
Its value is 4.9 ± 1.0 mg/h.

And the “Concentration of Uric Acid in serum” value ([2]; 100 mg/man oral, in hunger, 0 hr (when administered))?
The value was 5.9 ± 0.9 mg/dL.

What about the “Concentration of Uric Acid in serum” value ([2]; 100 mg/man oral, in hunger, 4 hr) of the same compound?
The value was 4.6 ± 0.7 mg/dL.

And the “Concentration of Uric Acid in serum” value ([2]; 100 mg/man oral, in hunger, 24 hr)?
The value was 5.2 ± 0.8 mg/dL.

What about the “Concentration of Uric Acid in serum” value ([2]; 200 mg/man oral, in hunger, 0 hr (when administered)) of the same compound?
Its value is 5.6 ± 0.7 mg/dL.

And the “Concentration of Uric Acid in serum” value ([2]; 200 mg/man oral, in hunger, 4 hr)?
The value was 4.3 ± 0.9 mg/dL.

What about the “Concentration of Uric Acid in serum” value ([2]; 200 mg/man oral, in hunger, 24 hr) of the same compound?
The value was 5.0 ± 0.9 mg/dL.

Which results are given for CCOC(=O)[C@H](CCc1ccccc1)N[C@@H](C)C(=O)N1CCC[C@H]1C(=O)O [enalapril]?
systolic blood pressure lower than the hyperuricemic controls (Sprague-Dawley rats [3]): 25 mm Hg; effect on systolic blood pressure of hyperuricemic rats (Sprague-Dawley rats [3]): lowest systolic blood pressures

Which “systolic blood pressure lower than the hyperuricemic controls” value (Sprague-Dawley rats [3]) does the source give for N=C(N)NCCC[C@H](N)C(=O)O [L-Arginine] here?
The value was 25 mm Hg.

What about the “effect on systolic blood pressure of hyperuricemic rats” value (Sprague-Dawley rats [3]) of the same compound?
The value was “largely prevented this increase”.

Which Renin (Sprague-Dawley rats [4]; control 39.6 ± 2.0) does the source give for Oc1ncnc2[nH]ncc12 [Allopurinol, allopurinol] here?
Its Renin is 44.1 ± 1.6 % positive JGA.

And the NOS-1 (Sprague-Dawley rats [4]; control 147.2 ± 12.4)?
Its NOS-1 is 97.4 ± 5.6 positive cells/100 glomeruli.

What about the OPN (Sprague-Dawley rats [4]; mean±SE, control 0.9 ± 0.06) of the same compound?
Its OPN is 1.3 ± 0.15 % increase.

And the “Type III collagen” value (Sprague-Dawley rats [4]; mean±SE, control 5.4 ± 0.3)?
The value was 6.2 ± 0.6%.

And the BUN (Sprague-Dawley rats [4]; mean±SE, control 14.4 ± 1.2)?
Its BUN is 15.2 ± 2.3 mg/dL.

And the “ED-1 (macrophages)” value (Sprague-Dawley rats [4]; mean±SE, control 18.3 ± 1.3)?
The value was 20.5 ± 0.6 cells/mm2.

And the “development of hyperuricemia and hypertension” value (Sprague-Dawley rats [5])?
Its value is “prevented”.

And the “blood pressure and serum uric acid in hypertensive, hyperuricemic rats” value (Sprague-Dawley rats [6])?
Its value is “reduction in the blood pressure in association with a fall in serum uric acid values”.

What about the OPN (Sprague-Dawley rats [7]; control 0.7 ± 0.08) of the same compound?
The OPN was 0.97 ± 0.03 % increase.

And the “Type III collagen” value (Sprague-Dawley rats [7]; control 7.2 ± 0.6)?
The value was 9.6 ± 0.3 %.

And the BUN (Sprague-Dawley rats [7]; control 16.6 ± 0.9)?
The BUN was 17.7 ± 0.5 mg/dL.

And the “ED-1 (macrophages)” value (Sprague-Dawley rats [7]; control 27.8 ± 1.4)?
The value was 25.2 ± 2.6 cells/mm2.

What about the Renin (Sprague-Dawley rats [7]; control 41.0 ± 1.9) of the same compound?
Its Renin is 44.2 ± 1.3 % positive JGA.

What about the NOS-1 (Sprague-Dawley rats [7]; control 104.4 ± 11.5) of the same compound?
The NOS-1 was 98.6 ± 5.1 positive cells/100 glomeruli.
